According to ChEMBL document CHEMBL3734655, “Identification of camphor derivatives as novel M2 ion channel inhibitors of influenza A virus” (Medchemcomm, 2015):
The source made the active and inactive calls. No cut-off for these calls is given here.

What was measured:
Influenza A virus [1] = assay: Antiviral activity against M2 ion channel S31N mutant expressing amantadine-resistant Influenza A virus infected in MDCK cells preincubated for 30 mins followed by viral infection measured after 72 hrs by CCK-8 assay; type: functional, organism-based
Influenza A virus [2] = assay: Antiviral activity against amantadine-resistant Influenza A virus (A/WSN/1933) infected in MDCK cells preincubated for 30 mins followed by viral infection measured after 72 hrs by CCK-8 assay; type: functional, organism-based; details: A/WSN/1933(H1N1)

| Structure (SMILES) | Activity (Influenza A virus [1]) | Activity (Influenza A virus [2]) |
| --- | --- | --- |
| NC1CC2CCC1C2 (stereo not drawn) | inactive | inactive |
| C[C@H]1[C@H]([C@H](C)N)C[C@@H]2C[C@H]1C2(C)C | inactive | inactive |
| CC1(C)[C@H]2CC[C@](C)(C2)[C@H]1CN | inactive | inactive |
| C[C@H]1[C@H](CN)C[C@@H]2C[C@H]1C2(C)C | inactive | inactive |
| CC1(C)[C@@H]2CC[C@@]1(C)[C@@H](N)C2 (relative stereo) | inactive | inactive |
| C[C@H]1[C@H](N)C[C@@H]2C[C@H]1C2(C)C | inactive | inactive |
| N[C@H]1C[C@@H]2CC[C@H]1C2 | inactive | inactive |
| C[C@@H](N)[C@H]1C[C@H]2CC[C@]1(C)C2(C)C.Cl | inactive | inactive |
| CC1(C)[C@@H]2CC[C@@]1(C)[C@@H](CN)C2 | inactive | inactive |
